Measurements as given in patent US12606528B2, “Methods and materials for inhibiting NF-kB activity” (University of Pittsburgh - Of the Commonwealth System of …, priority 2019, dated 2026).
Read-outs that look alike come from different tables or passages of the source.

Assays:
NF-κB = NF-κB assay: THP1-NF-κB-LUC cells, LPS-stimulated secreted luciferase; type: cell-based; details: THP1-NF-κB-LUC cells, read-out: IC50 (NF-κB assay)
Procedure, shortened: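 THP1-NF-κB-LUC cells (25k/well) were pretreated with compounds for 2 h, then stimulated with LPS (10 ng/mL) for 18 h. Secreted luciferase was measured and normalized to vehicle, and IC50 was fitted from the concentration series.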

TNF release = test: TNF assay: TNF release from LPS-stimulated human PBMCs (TNF ELISA); type: cell-based; details: PBMC, read-out: IC50 (TNF assay)
Procedure, shortened: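 TNF ELISA on supernatants read-out; cells were 10k human PBMCs/well given LPS at 10 ng/mL for 18 h after a 2 h compound pre-incubation across a concentration series, with IC50 derived for suppression of TNF secretion.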

[1] = LPS-stimulated human PBMCs, TNF ELISA
[2] = compounds 2 hours before LPS (10 ng/mL) for 18 hours, secreted luciferase
[3] = human PBMCs, compounds 2 hours before LPS (10 ng/ml) for 18 hours, supernatant TNF ELISA

Structure (SMILES)	IC50 (NF-κB; LPS-stimulated)	IC50 (TNF release; [1])	IC50 (NF-κB; [2])	IC50 (TNF release; [3])
O=S(=O)(NCCCO)c1ccc2nc(-c3ccc(F)cc3)c(-c3ccc(F)cc3)nc2c1 [BC19509]	< 100 nM	> 10000 nM		
CN1CCN(c2ccc3nc(-c4ccc(F)cc4)c(-c4ccc(F)cc4)nc3c2)CC1 [BC19510]	100 to 1000 nM	> 10000 nM		
CC(=O)N1CCN(c2ccc3nc(-c4ccc(F)cc4)c(-c4ccc(F)cc4)nc3c2)CC1 [BC19511]	< 100 nM	> 10000 nM		
N#Cc1ccc2nc(-c3ccc(F)cc3)c(-c3ccc(F)cc3)nc2n1 [BC19512]	100 to 1000 nM	> 10000 nM		
O=C(c1ccc2nc(-c3ccc(F)cc3)c(-c3ccc(F)cc3)nc2c1)N1CCN(CCO)CC1 [BC19513]	< 100 nM	> 10000 nM		
O=C(c1ccc2nc(-c3ccc(F)cc3)c(-c3ccc(F)cc3)nc2c1)N1CCN(CCOCCO)CC1 [BC19514]	100 to 1000 nM	1000 to 10000 nM		
O=c1[nH]ccc2cc([S+]([O-])c3ccc(Cl)cc3)ccc12 (stereo not shown) [BC19515]			> 10000 nM	> 10000 nM
O=c1[nH]ccc2cc(S(=O)(=O)c3ccc(Cl)cc3)ccc12 [BC19516]			> 10000 nM	> 10000 nM
Cc1ccc([S+]([O-])c2ccc3c(=O)[nH]ccc3c2)cc1 (stereo not shown) [BC19517]			> 10000 nM	> 10000 nM
Cc1ccc(S(=O)(=O)c2ccc3c(=O)[nH]ccc3c2)cc1 [BC19518]			> 10000 nM	> 10000 nM
O=c1[nH]ccc2cc([S+]([O-])c3cccc(F)c3)ccc12 (stereo not shown) [BC19519]			> 10000 nM	> 10000 nM
O=c1[nH]ccc2cc(S(=O)(=O)c3cccc(F)c3)ccc12 [BC19520]			> 10000 nM	> 10000 nM
CCCS(=O)(=O)c1oc(-c2ccccc2)nc1S(=O)(=O)c1ccc(Cl)cc1 [BC19521]	< 100 nM	100 to 1000 nM		
CS(=O)(=O)c1[nH]c(-c2ccccc2)nc1S(=O)(=O)c1ccc(F)cc1 [BC19522]	1000 to 10000 nM	> 10000 nM		
CC(C)[S+]([O-])c1[nH]c(-c2ccccc2)nc1S(=O)(=O)c1ccc(F)cc1 (stereo not shown) [BC19523]	1000 to 10000 nM	> 10000 nM		
COCC[S+]([O-])c1[nH]c(-c2ccccc2)nc1S(=O)(=O)c1ccc(F)cc1 (stereo not shown) [BC19524]	> 10000 nM	> 10000 nM		
O=S(=O)(CC1CC1)c1sc(-c2ccccc2)nc1S(=O)(=O)c1ccc(Cl)cc1 [BC19525]	1000 to 10000 nM	1000 to 10000 nM		
COCC[S+]([O-])c1sc(-c2ccccc2)nc1S(=O)(=O)c1ccc(Cl)cc1 (stereo not shown) [BC19526]	1000 to 10000 nM	1000 to 10000 nM		
COCCS(=O)(=O)c1sc(-c2cccc(F)c2)nc1S(=O)(=O)c1ccc(Cl)cc1 [BC19527]	1000 to 10000 nM	1000 to 10000 nM		

Structure (SMILES)	IC50 (NF-κB; LPS-stimulated)	IC50 (TNF release; [1])	IC50 (NF-κB; [2])	IC50 (TNF release; [3])
C[S+]([O-])c1sc(-c2ccc(Cl)cc2)nc1S(=O)(=O)c1ccc(Cl)cc1 (stereo not shown) [BC19528]	1000 to 10000 nM	100 to 1000 nM		
CC(C)CS(=O)(=O)c1sc(-c2ccc(Cl)cc2)nc1S(=O)(=O)c1ccc(Cl)cc1 [BC19529]	> 10000 nM	1000 to 10000 nM		
O=S(=O)(CC1CC1)c1sc(-c2ccc(Cl)cc2)nc1S(=O)(=O)c1ccc(Cl)cc1 [BC19530]	1000 to 10000 nM	1000 to 10000 nM		
CCC[S+]([O-])c1sc(-c2cccc(F)c2)nc1S(=O)(=O)c1ccc(Cl)cc1 (stereo not shown) [BC19531]	1000 to 10000 nM	100 to 1000 nM		
O=S(=O)(c1ccc(Cl)cc1)c1nc(-c2cccc(F)c2)sc1[S+]([O-])C1CCCCC1 (stereo not shown) [BC19532]	> 10000 nM	> 10000 nM		
CCC[S+]([O-])c1sc(-c2ccc(Cl)cc2)nc1S(=O)(=O)c1ccc(Cl)cc1 (stereo not shown) [BC19533]	1000 to 10000 nM	1000 to 10000 nM		
CS(=O)(=O)c1sc(-c2ccc(Cl)cc2)nc1S(=O)(=O)c1ccc(F)cc1 [BC19534]	1000 to 10000 nM	1000 to 10000 nM		
CCC[S+]([O-])c1sc(-c2ccc(Cl)cc2)nc1S(=O)(=O)c1ccc(F)cc1 (stereo not shown) [BC19535]	1000 to 10000 nM	1000 to 10000 nM		
CCCS(=O)(=O)c1sc(-c2ccc(Cl)cc2)nc1S(=O)(=O)c1ccc(F)cc1 [BC19536]	1000 to 10000 nM	100 to 1000 nM		
CC(C)[S+]([O-])c1sc(-c2ccc(Cl)cc2)nc1S(=O)(=O)c1ccc(F)cc1 (stereo not shown) [BC19537]	> 10000 nM	> 10000 nM		
CC(C)S(=O)(=O)c1sc(-c2ccc(Cl)cc2)nc1S(=O)(=O)c1ccc(F)cc1 [BC19538]	1000 to 10000 nM	1000 to 10000 nM		
O=S(=O)(CC1CC1)c1sc(-c2ccc(Cl)cc2)nc1S(=O)(=O)c1ccc(F)cc1 [BC19539]	1000 to 10000 nM	1000 to 10000 nM		
COCC[S+]([O-])c1sc(-c2ccc(Cl)cc2)nc1S(=O)(=O)c1ccc(F)cc1 (stereo not shown) [BC19540]	1000 to 10000 nM	1000 to 10000 nM		
COCCS(=O)(=O)c1sc(-c2ccc(Cl)cc2)nc1S(=O)(=O)c1ccc(F)cc1 [BC19541]	1000 to 10000 nM	1000 to 10000 nM		
O=S1(=O)CCn2c(-c3ccccc3)nc(S(=O)(=O)c3ccc(F)cc3)c21 [BC19542]	> 10000 nM	> 10000 nM		
Cc1ccc(S(=O)(=O)c2nc(S(=O)(=O)C(C)C)sc2S(=O)(=O)C(C)C)cc1 [BC19543]	100 to 1000 nM	< 100 nM		
CCS(=O)(=O)c1cc2c(c(S(=O)(=O)Nc3ccc(C)c(Cl)c3)c1)OCC(=O)N2 [BC19544]			< 100 nM	> 10000 nM
CCS(=O)(=O)c1cc2c(c(S(=O)(=O)Nc3ccc(F)cc3F)c1)OCC(=O)N2 [BC19545]			< 100 nM	> 10000 nM
CCS(=O)(=O)c1cc2c(c(S(=O)(=O)Nc3ccc(C)cc3)c1)OCC(=O)N2 [BC19546]			< 100 nM	> 10000 nM

Structure (SMILES)	IC50 (NF-κB; LPS-stimulated)	IC50 (TNF release; [1])	IC50 (NF-κB; [2])	IC50 (TNF release; [3])
CCS(=O)(=O)c1cc2c(c(S(=O)(=O)Nc3ccc(OC)c(Cl)c3)c1)OCC(=O)N2 [BC19547]			100 to 1000 nM	> 10000 nM
CCS(=O)(=O)c1cc2c(c(S(=O)(=O)Nc3ccc(C#N)cc3)c1)OCC(=O)N2 [BC19548]			< 100 nM	> 10000 nM
O=C1NCCOc2c1cc(Br)cc2S(=O)(=O)Nc1ccc(F)cc1 [BC19549]	1000 to 10000 nM	> 10000 nM		
O=C1NCCOc2c1cc(Br)cc2S(=O)(=O)Nc1ccc(OC(F)(F)F)cc1 [BC19550]	< 100 nM	> 10000 nM		
O=C1NCCOc2c1cc(Br)cc2S(=O)(=O)Nc1ccc(F)c(F)c1 [BC19551]	100 to 1000 nM	> 10000 nM		
Cc1ccc(NS(=O)(=O)c2cc(Br)cc3c2OCCNC3=O)cc1F [BC19552]	100 to 1000 nM	> 10000 nM		
O=C1NCCOc2c1cc(Br)cc2S(=O)(=O)Nc1ccccc1 [BC19553]	1000 to 10000 nM	> 10000 nM		
COCCCNS(=O)(=O)c1ccc2nc(-c3ccc(F)cc3)c(-c3ccc(F)cc3)nc2c1 [BC19554]	< 100 nM	> 10000 nM		
CN(C)CCNS(=O)(=O)c1ccc2nc(-c3ccc(F)cc3)c(-c3ccc(F)cc3)nc2c1 [BC19555]	< 100 nM	1000 to 10000 nM		
CCNS(=O)(=O)c1ccc2nc(-c3ccc(F)cc3)c(-c3ccc(F)cc3)nc2c1 [BC19556]	100 to 1000 nM	> 10000 nM		
O=S(=O)(NCc1cccnc1)c1ccc2nc(-c3ccc(F)cc3)c(-c3ccc(F)cc3)nc2c1 [BC19557]	< 100 nM	> 10000 nM		
O=S(=O)(NCc1ccncc1)c1ccc2nc(-c3ccc(F)cc3)c(-c3ccc(F)cc3)nc2c1 [BC19558]	100 to 1000 nM	> 10000 nM		
O=S(=O)(NCc1ccccn1)c1ccc2nc(-c3ccc(F)cc3)c(-c3ccc(F)cc3)nc2c1 [BC19559]	< 100 nM	> 10000 nM		
O=C1CCCN1CCCNS(=O)(=O)c1ccc2nc(-c3ccc(F)cc3)c(-c3ccc(F)cc3)nc2c1 [BC19560]	< 100 nM	> 10000 nM		
Cc1ccc(-c2nc3ccc(S(=O)(=O)NCCCN4CCN(C)CC4)cc3nc2-c2ccc(C)cc2)cc1 [BC19561]	100 to 1000 nM	> 10000 nM		
CN(C)CCCNS(=O)(=O)c1ccc2nc(-c3ccc(F)cc3)c(-c3ccc(F)cc3)nc2c1 [BC19562]	100 to 1000 nM	1000 to 10000 nM		
CCNC(=O)Nc1ccc2nc(-c3ccc(F)cc3)c(-c3ccc(F)cc3)nc2c1 [BC19563]	< 100 nM	> 10000 nM		
CN(C)CCNC(=O)Nc1ccc2nc(-c3ccc(F)cc3)c(-c3ccc(F)cc3)nc2c1 [BC19564]	< 100 nM	1000 to 10000 nM		
